Assay results as given in patent publication US20250145600A1, “2-((4-((S)-2-(4-CHLORO-2-FLUOROPHENYL)-2-METHYLBENZO[D][1,3]DIOXOL-4-YL)PIPERIDIN-1-YL)METHYL)-1-(((S)-OXETAN-2-YL)METHYL)-1H-IMIDAZOLE DERIVATIVES AS ACTIVATORS OF THE GLP1 RECEPTOR FOR THE TREATMENT OF OBESITY” (Novartis AG, priority 2022, published 2025).

Biological target: human GLP1R (hGLP1R) (Homo sapiens, UniProt P43220)
Test: Human GLP1R cAMP agonist assay (GloSensor cAMP Assay)
Format: cell-based
Settings: HEK293-SNAP-hGLP1R-GloSensor cells; for Emax: cAMP activity as percent of GLP1 (7-36) EC100 control; for EC50: intracellular cAMP, 12 min at rt
Description: Compounds of formula (I) according to the invention were tested in the following cellular assays that measure the intracellular cAMP concentration, beta-arrestin recruitment and receptor internalization. The cAMP is generated by the activation of GLP1R. The extent to which the GLP1R is internalized into the cell and away from the plasma membrane following activation is also shown in Table 2. EC50 for each assay is defined as the concentration of the compound that leads to half of the maximum response (after baseline correction). Emax is defined as the maximum response observed for the test compound, normalized to the maximum response observed for the endogenous ligand (GLP1(7-36)) to GLP1R.
Human GLP1R cAMP Agonist Assay
The agonist activity of compounds was determined using the GloSensor™ cAMP Assay (Promega Corp.), which measures changes in the intracellular concentration of cAMP after ligand activation of GPCRs. The assay uses a biosensor encoded by pGloSensor™-22F cAMP plasmid (Promega, cat #E2301) with cAMP binding domains fused to a mutant form of Photinus pyralis luciferase. Binding to cAMP causes conformational changes that promote large increases in light output, which can be measured by a luminescence detector. HEK293-SNAP-hGLP1R-GloSensor cells stably overexpressing the human GLP1 receptor (hGLP1R) and pGloSensor™-22F were seeded in white 384-well poly-D-Lysine coated plates (Greiner Bio One, cat #781945) in CO2-independent media (Gibco cat #18045-088 with 1.0% FBS, 2 mM L-glutamine, penicillin and streptomycin) and incubated overnight at 37° C., 5% CO2 with humidity. The assay was started the following morning by adding an equal volume of CO2-independent media containing 4% v/v dilution of the GloSensor substrate (Promega, cat #E1291) to all wells. The cell plate was incubated at rt for 2 h in the dark. The Biomek 7 (Beckman Coulter) instrument was used for the liquid handling steps. To generate duplicate dose response curves, 3-fold serially diluted compounds were added in to the cell assay plate to a final volume of 60 μL with final concentrations ranging from 30 μM through 0.06 μM in CO2-independent media containing 0.1% BSA, 0.5 mM IBMX and 0.4% DMSO. In the same plate and assay buffer as the tested compounds, were EC100 control wells containing GLP1 (7-36) peptide (Bachem, cat #H-6795) at a final concentration of 2 nM and also EC0 control wells containing no peptide. This plate was incubated at rt in the dark for 12 min after adding the compounds to the cells. Luminescence was then measured with an Envision 2104 Multilabel reader with “TRF Light Unit, 337 nm” (PerkinElmer) using the Ultra-Sensitive protocol setting “384-well US luminescence detector” with the 384-well luminescence aperture, 0.1 seconds per well. cAMP activity was calculated as percent of the GLP1 (7-36) EC100 control wells: [(sample signal−mean EC0 signal)/(mean EC100 of GLP1 (7-36) signal−mean EC0 signal)}*100. Curve fitting for EC50 determinations was performed in the Helios module of the software package DAVID. The 4-parameter logistic model, Hill slope was used: y=Ainf+(A0−Ainf)/(1+(x/AC50)^Hill Slope) where y is the functional response; x is the compound concentration; A0 is the minimum value (at 0 dose); Ainf is the maximum value (at infinite dose); AC50 corresponds to the point of inflection (i.e. the point on the sigmoid shaped curve halfway between A0 and Ainf). The EC50 value was represented by the AC50 value calculated from Helios in μM. Emax is the maximal activity detected within the concentration range, derived from the fitted curve.
327 μL of Opti-MEM medium (Gibco, cat #31985-062) were mixed with 12 μL of FuGENE® HD (Promega, cat #E2311) and incubated at rt for 5 min. Then 8.2 μL (4 μg, 0.485 μg/μL solution) of pSNAP-hGLP1R plasmid (Cisbio, cat #PSNAP-GLP1) encoding human GLP1R (NCBI Reference Sequence: NM_002062.3) fused with Cisbio's SNAP tag was added in to the Fugene HD/Opti-MEM mix, and incubated at rt for 20 min. […]

Chain of human GLP1R (hGLP1R) (P43220 24-463): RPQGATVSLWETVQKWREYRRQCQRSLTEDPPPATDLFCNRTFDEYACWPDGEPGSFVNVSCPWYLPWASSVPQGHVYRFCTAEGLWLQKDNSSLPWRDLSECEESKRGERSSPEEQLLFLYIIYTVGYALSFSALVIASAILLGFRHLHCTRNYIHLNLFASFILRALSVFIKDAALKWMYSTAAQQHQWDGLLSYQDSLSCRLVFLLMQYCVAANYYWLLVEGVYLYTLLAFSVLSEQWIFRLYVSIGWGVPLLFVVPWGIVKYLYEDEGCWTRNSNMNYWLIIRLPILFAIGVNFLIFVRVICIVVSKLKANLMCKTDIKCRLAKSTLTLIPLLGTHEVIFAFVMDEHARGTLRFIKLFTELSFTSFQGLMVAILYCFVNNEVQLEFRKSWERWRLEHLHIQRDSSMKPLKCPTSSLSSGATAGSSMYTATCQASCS

| Emax [%] | EC50 [nM] | SMILES |
| --- | --- | --- |
| 108 | 0.149 | Cc1nc(CN2CCC(c3cccc4c3O[C@@](C)(c3ccc(Cl)cc3F)O4)CC2)n(C[C@H]2CCO2)c1-c1ncc(C(=O)O)o1 [Compound C-2, 2-(2-((4-((S)-2-(4-chloro-2-fluorophenyl)-2-methylbenzo[d][1,3]dioxol-4-yl)piperidin-1-yl)methyl)-4-methyl-1-(((R)-oxetan-2-yl)methyl)-1H-imidazol-5-yl)oxazole-5-carboxylic acid] |
| 105 | 0.0484 | Cc1nc(CN2CCC(c3cccc4c3O[C@@](C)(c3ccc(Cl)cc3F)O4)CC2)n(C[C@H]2CCO2)c1-c1nc(C(=O)O)co1 [Compound C-3, 2-(2-((4-((S)-2-(4-chloro-2-fluorophenyl)-2-methylbenzo[d][1,3]dioxol-4-yl)piperidin-1-yl)methyl)-4-methyl-1-(((R)-oxetan-2-yl)methyl)-1H-imidazol-5-yl)oxazole-4-carboxylic acid] |
| 123 | 0.464 | CCc1nc(CN2CCC(c3cccc4c3O[C@@](C)(c3ccc(Cl)cc3F)O4)CC2)n(C[C@@H]2CCO2)c1-c1ncc(C(=O)O)o1 [Compound C-6, 2-(2-((4-((S)-2-(4-chloro-2-fluorophenyl)-2-methylbenzo[d][1,3]dioxol-4-yl)piperidin-1-yl)methyl)-4-ethyl-1-(((S)-oxetan-2-yl)methyl)-1H-imidazol-5-yl)oxazole-5-carboxylic acid] |
| 101 | 0.353 | CCc1nc(CN2CCC(c3cccc4c3O[C@@](C)(c3ccc(Cl)cc3F)O4)CC2)n(C[C@H]2CCO2)c1-c1ncc(C(=O)O)o1 [Compound C-8, 2-(2-((4-((S)-2-(4-chloro-2-fluorophenyl)-2-methylbenzo[d][1,3]dioxol-4-yl)piperidin-1-yl)methyl)-4-ethyl-1-(((R)-oxetan-2-yl)methyl)-1H-imidazol-5-yl)oxazole-5-carboxylic acid] |
| 105 | 0.0428 | Cc1nc(CN2CCC(c3cccc4c3O[C@@](C)(c3ccc(C#N)cc3F)O4)CC2)n(C[C@@H]2CCO2)c1-c1nc(C(=O)O)c(C)o1 [Compound C-11, 2-(2-((4-((S)-2-(4-cyano-2-fluorophenyl)-2-methylbenzo[d][1,3]dioxol-4-yl)piperidin-1-yl)methyl)-4-methyl-1-(((S)-oxetan-2-yl)methyl)-1H-imidazol-5-yl)-5-methyloxazole-4-carboxylic acid] |
| 103 | 0.112 | Cc1nc(-c2nc(CN3CCC(c4cccc5c4O[C@@](C)(c4ccc(Cl)cc4F)O5)CC3)n(C[C@@H]3CCO3)c2C)oc1C(=O)O [Compound C-15, 2-(2-((4-((S)-2-(4-chloro-2-fluorophenyl)-2-methylbenzo[d][1,3]dioxol-4-yl)piperidin-1-yl)methyl)-5-methyl-1-(((S)-oxetan-2-yl)methyl)-1H-imidazol-4-yl)-4-methyloxazole-5-carboxylic acid] |
| 119 | 0.35 | Cc1nc(CN2CCC(c3cccc4c3O[C@@](C)(c3ccc(Cl)cc3F)O4)CC2)n(C[C@@H]2CCO2)c1-c1ccc(C(=O)O)o1 [Compound C-22, 5-(2-((4-((S)-2-(4-chloro-2-fluorophenyl)-2-methylbenzo[d][1,3]dioxol-4-yl)piperidin-1-yl)methyl)-4-methyl-1-(((S)-oxetan-2-yl)methyl)-1H-imidazol-5-yl)furan-2-carboxylic acid] |
| 106 |  | Cc1c(-c2cncc(C(=O)O)c2)nc(CN2CCC(c3cccc4c3O[C@@](C)(c3ccc(Cl)cc3F)O4)CC2)n1C[C@@H]1CCO1 [Compound C-23, 5-(2-((4-((S)-2-(4-chloro-2-fluorophenyl)-2-methylbenzo[d][1,3]dioxol-4-yl)piperidin-1-yl)methyl)-5-methyl-1-(((S)-oxetan-2-yl)methyl)-1H-imidazol-4-yl)nicotinic acid] |
